Laboratory results as given in patent US8609043B2, “Use of a container of an inorganic additive containing plastic material” (M & P Patent Aktiengesellschaft, priority 2001, dated 2013).

Test: Stability of formulations containing testosterone in containers of different material (HPLC)
Type: physicochemical
Procedure: As an example for the aforementioned considerations in table 1 are shown the results of tests investigating the stability of formulations containing the steroid hormone testosterone in containers of different material.
The term “remaining drug after storage” is the amount of testosterone remaining in the formulation after storage for 22 hours. The remaining drug was measured by HPLC technique.

With `C[C@]12CC[C@H]3[C@@H](CCC4=CC(=O)CC[C@@]43C)[C@@H]1CC[C@@H]2O` [testosterone] the “Remaining drug after storage (%)” value (Methanolic formulation, primary packaging material Glass, storage for 22 hours) was 100%, the “Remaining drug after storage (%)” value (Oil-based formulation, primary packaging material Glass, storage for 22 hours) was “≈80%” and the “Remaining drug after storage (%)” value (Oil-based formulation, primary packaging material LDPE + TiO2, storage for 22 hours) was 100%. For the same molecule, the “Remaining drug after storage (%)” value (Oil-based formulation, primary packaging material LDPE, storage for 22 hours) was “≈30%” and the “Remaining drug after storage (%)” value (Oil-based formulation, primary packaging material PP, storage for 22 hours) was “≈50%”.
